Calls of active or inactive are those of the source. The rule behind the calls is not given here.
Key:
HeLa [1] = assay: Induction of apoptosis in human HeLa cell line at 200 uM after 24 hrs by annexin V/conjugated 7-AAD nexin assay; assay type: functional
HeLa [2] = assay: Downregulation of c-MYC gene expression in human HeLa cell line at 200 uM after 24 hrs by RT-PCR analysis; assay type: functional
Nucleic Acid [3] = assay: Binding affinity to 22 mer c-MYC DNA G-quadruplex assessed as change in melting temperature at 0.2 uM by FRET assay; assay type: nucleic-acid assay
Nucleic Acid [4] = assay: Binding affinity to 22 mer c-MYC DNA G-quadruplex assessed as change in melting temperature at 0.4 uM by FRET assay; assay type: nucleic-acid assay
Nucleic Acid [5] = assay: Binding affinity to 22 mer c-MYC DNA G-quadruplex assessed as change in melting temperature at 0.8 uM by FRET assay; assay type: nucleic-acid assay
Nucleic Acid [6] = assay: Binding affinity to 22 mer c-MYC DNA G-quadruplex assessed as change in melting temperature at 1.2 uM by FRET assay; assay type: nucleic-acid assay
Nucleic Acid [7] = assay: Binding affinity to 22 mer c-MYC DNA G-quadruplex assessed as induction of quadruplex folding at 5 to 10 uM by CD spectroscopy; assay type: nucleic-acid assay
Calf thymus DNA = assay: Binding affinity to calf thymus DNA assessed as change in melting temperature at 0.2 to 1.6 uM by […]; assay type: nucleic-acid assay; settings: Bos taurus
Nucleic Acid [8] = assay: Binding affinity to 22 mer c-MYC G-quadruplex by isothermal titration calorimetry; assay type: nucleic-acid assay
Nucleic Acid [9] = assay: Binding affinity to 22 mer c-MYC G-quadruplex assessed as effect on ligand-telomeric complex formation by […]; assay type: nucleic-acid assay
HeLa [10] = assay: Cytotoxicity against human HeLa cells at 100 uM after 5 days by propidium iodide staining-based flow cytometry; assay type: functional, cell-based
HeLa [11] = assay: Downregulation of c-MYC gene expression in human HeLa cell line at 100 uM after 24 hrs by RT-PCR analysis; assay type: functional

Compound	Activity (HeLa [1])	inhibition at 200 µM (HeLa [2])	Tm (Nucleic Acid [3])	Tm (Nucleic Acid [4])	Tm (Nucleic Acid [5])	Tm (Nucleic Acid [6])	Activity (Nucleic Acid [7])	Activity (Calf thymus DNA)	K (Nucleic Acid [8])	Kd (Nucleic Acid [9])	Activity (HeLa [10])	inhibition at 100 µM (HeLa [11])
NCC1=C2CNC(=O)C3=CC(CN)=C(CNC(=O)c4cc(CN)c(o4)CNC(=O)C(=C1)O2)O3.O=C(O)C(F)(F)F.O=C(O)C(F)(F)F.O=C(O)C(F)(F)F	18%	50%	2 °C	4 °C	6 °C	8 °C	Active	inactive	3.21 ×10⁵ /M	1.2 µM	inactive	
NCCC(=O)NCC1=C2CNC(=O)C3=CC(CNC(=O)CCN)=C(CNC(=O)c4cc(CNC(=O)CCN)c(o4)CNC(=O)C(=C1)O2)O3.O=C(O)C(F)(F)F.O=C(O)C(F)(F)F.O=C(O)C(F)(F)F	22%		5 °C	12 °C	15 °C	20 °C	Active	inactive	5.7 ×10⁵ /M	2.1 µM	inactive	50%

— ChEMBL document CHEMBL1208757, “Furan based cyclic homo-oligopeptides bind G-quadruplex selectively and repress c-MYC transcription” (Bioorg Med Chem Lett, 2010)
